{"source": "patent US20150064172A1", "about": "“METHODS OF TREATING A DISEASE OR DISORDER ASSOCIATED WITH BRUTON'S TYROSINE KINASE” (Celgene Avilomics Research, Inc., priority 2013, published 2015)", "key": {"CLL": {"tested_on": "CLL", "assay": "Compound 1 besylate monotherapy in patients with CLL", "type": "in vivo"}, "Solubility": {"assay": "Solubility", "type": "physicochemical"}, "[1]": {"assay": "Environmental stability (heat, acid, base)", "type": "physicochemical"}, "relapsed/refractory CLL": {"tested_on": "relapsed/refractory CLL", "conditions": "cited from earlier work"}, "[2]": {"conditions": "monotherapy, as of Sep. 11, 2012"}, "[3]": {"conditions": "25 mg for 21 days of every 28-day cycle"}}, "note": "Where two headings read alike, the source gives them in different places.", "data": [{"smiles": "C=CC(=O)Nc1cccc(Nc2nc(Nc3ccc(OCCOC)cc3)ncc2F)c1.O=S(=O)(O)c1ccccc1", "note": "[Compound 1 besylate, N-(3-(5-fluoro-2-(4-(2-methoxyethoxyl)phenylamino)pyrimidin-4-ylamino)phenyl)acrylamide benzenesulfonic acid salt]", "values": [{"measurement": "patients who experienced early increases in absolute lymphocyte counts (ALC)", "setting": "CLL; [2]", "result": "28 of 33"}, {"measurement": "patients who experienced reductions in lymph node size", "setting": "CLL; [2]", "result": "15 of 23"}, {"measurement": "patients with CLL who experienced stable disease and continue on treatment", "setting": "CLL; [2]", "result": "35 out of 43"}, {"measurement": "solubility", "setting": "Solubility; ethanol, organic solvent or mixture, read-out: solubility in ethanol", "result": "~10000", "unit": "µg/mL"}, {"measurement": "solubility", "setting": "Solubility; water, read-out: solubility in water", "result": "~160", "unit": "µg/mL"}, {"measurement": "environmental instabilities (i.e. heat, acid, base)", "setting": "[1]", "result": "no environmental instabilities"}]}, {"smiles": "C=CC(=O)Nc1cccc(Nc2nc(Nc3ccc(OCCOC)cc3)ncc2F)c1", "note": "[Compound 1, N-(3-(5-fluoro-2-(4-(2-methoxyethoxyl)phenylamino)pyrimidin-4-ylamino)phenyl)acrylamide]", "values": [{"measurement": "maximum tolerated dose (MTD)", "setting": "CLL; single agent", "result": "has not yet been reached"}]}, {"smiles": "Nc1cccc2c1CN(C1CCC(=O)NC1=O)C2=O", "note": "(centres unmarked) [lenalidomide, 3-(4-amino-1-oxo-1,3-dihydro-2H-isoindol-2-yl)piperidine-2,6-dione]", "values": [{"measurement": "Complete Response [CR]", "setting": "relapsed/refractory CLL; [3]", "result": 18, "unit": "%"}, {"measurement": "Partial Response [PR]", "setting": "relapsed/refractory CLL; [3]", "result": 36, "unit": "%"}, {"measurement": "median progression-free survival (PFS) time", "setting": "relapsed/refractory CLL; [3]", "result": 19.4, "unit": "months"}, {"measurement": "median time to best response", "setting": "relapsed/refractory CLL; [3]", "result": 5.9, "unit": "months"}, {"measurement": "overall response", "setting": "relapsed/refractory CLL; [3]", "result": 53, "unit": "%"}, {"measurement": "Clinical responses (CR or PR)", "setting": "relapsed/refractory CLL; subjects refractory to fludarabine", "result": 30, "unit": "%"}, {"measurement": "Clinical responses (CR or PR)", "setting": "relapsed/refractory CLL; subjects with del (11)(q23) and/or del (17)(p13.1) adverse cytogenetics", "result": 47, "unit": "%"}]}]}
